Laboratory results taken from US11999727B2 (Tango Therapeutics, Inc., priority 2020, dated 2024).
Read-outs that look alike come from different tables or passages of the source.

Legend:
PRMT5 [1] = target: T1, PRMT5 (Homo sapiens, UniProt O14744); test: PRMT5 biochemical IC50 assay with SAM as cofactor; details: PRMT5, SAM as cofactor; read-out: SAM IC50
T1 construct: purchased Viva (custom protein)

PRMT5 [2] = target: T1, PRMT5; test: PRMT5 biochemical IC50 assay with no cofactor; details: PRMT5, no cofactor; read-out: No Cofactor/rel IC50
Excerpt: Table 1 indicates IC50 values (μM) against PRMT5 for exemplary compounds in the presence of SAM as cofactor, with no cofactor, and with MTA as cofactor, respectively (columns 4-6). […] Ki values can be calculated from the IC50 values as described in the Examples section. As detailed in the Examples section, for the assay performed in the presence of SAM, IC50=Ki×1.5 (Ki=IC50/1.5).

PRMT5 [3] = target: T1, PRMT5; test: PRMT5 biochemical IC50 assay with MTA as cofactor; details: PRMT5, MTA as cofactor; read-out: MTA IC50
[4] = tested on: HAP1 MTAP-intact cell line; test: SDMA in-cell western assay, HAP1 MTAP-intact; assay type: cell-based; details: Homo sapiens
Outline: (§1)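 MTAP-null vs endogenous-MTAP HAP1 isogenic cells; in-cell western SDMA readout; IC50 per line.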

[5] = tested on: HAP1 MTAP-deleted cell line; test: SDMA in-cell western assay, HAP1 MTAP-deleted; assay type: cell-based; details: for IC50: Homo sapiens; for MTAP intact/deleted ratio: IC50 ratio HAP1 MTAP-intact vs HAP1 MTAP-deleted, SDMA in-cell western
Outline: as §1

[6] = tested on: HAP1 MTAP-deleted cell line; test: Viability assay, MTAP-deleted cell line; assay type: cell-based; details: Homo sapiens
Excerpt: Table 1 additionally indicates IC50 values in a viability assay for the MTAP-deleted cell line (column 10), indicating the effect of treatment with compound on cell survival.

[7] = HAP1, SDMA in-cell western, HAP1 MTAP-intact, read-out: MTAP HAP1 intact IC50
[8] = HAP1, SDMA in-cell western, HAP1 MTAP-deleted, read-out: HAP1 MTAP deleted IC50
[9] = HAP1, viability assay, MTAP-deleted cell line, read-out: HAP1 MTAP deleted viability

T1 sequence (O14744 whole entry): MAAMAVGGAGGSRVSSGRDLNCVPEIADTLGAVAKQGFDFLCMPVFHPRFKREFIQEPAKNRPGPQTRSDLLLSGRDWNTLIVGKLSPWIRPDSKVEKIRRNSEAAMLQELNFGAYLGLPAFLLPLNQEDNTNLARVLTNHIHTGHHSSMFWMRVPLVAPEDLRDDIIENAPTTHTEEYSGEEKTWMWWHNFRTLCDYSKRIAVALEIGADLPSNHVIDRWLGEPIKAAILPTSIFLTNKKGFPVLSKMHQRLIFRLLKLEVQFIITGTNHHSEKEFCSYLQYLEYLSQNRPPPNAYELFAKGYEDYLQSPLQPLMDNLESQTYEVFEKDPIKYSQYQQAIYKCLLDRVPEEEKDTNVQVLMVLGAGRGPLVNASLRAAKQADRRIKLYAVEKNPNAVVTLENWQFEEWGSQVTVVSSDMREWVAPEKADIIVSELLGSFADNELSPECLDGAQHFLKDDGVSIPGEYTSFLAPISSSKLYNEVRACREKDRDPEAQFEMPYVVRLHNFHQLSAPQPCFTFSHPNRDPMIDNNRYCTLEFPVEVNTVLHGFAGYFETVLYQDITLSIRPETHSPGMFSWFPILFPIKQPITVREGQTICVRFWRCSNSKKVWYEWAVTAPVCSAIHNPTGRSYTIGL
T1 sequence (Q9BQA1 whole entry partner): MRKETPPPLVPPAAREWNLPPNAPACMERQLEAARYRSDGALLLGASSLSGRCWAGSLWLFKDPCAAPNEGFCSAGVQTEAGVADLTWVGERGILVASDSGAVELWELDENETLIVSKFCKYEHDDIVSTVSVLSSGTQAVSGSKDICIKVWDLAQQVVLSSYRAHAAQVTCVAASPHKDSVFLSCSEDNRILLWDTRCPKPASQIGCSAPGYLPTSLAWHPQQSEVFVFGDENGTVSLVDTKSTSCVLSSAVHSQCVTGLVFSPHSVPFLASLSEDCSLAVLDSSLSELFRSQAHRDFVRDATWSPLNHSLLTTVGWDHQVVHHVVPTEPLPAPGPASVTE

Structure (SMILES) | IC50 (PRMT5 [1]) [nM] | IC50 (PRMT5 [2]) [nM] | IC50 (PRMT5 [3]) [nM] | IC50 [4, 7] [nM] | IC50 [5, 8] [nM] | MTAP intact/deleted ratio [5] | IC50 [6, 9] [nM] | IC50 ([4]; HAP1, read-out: MTAP HAP1 intact IC50) [nM] | IC50 ([5]; HAP1, read-out: HAP1 MTAP deleted IC50) [nM] | IC50 ([6]; HAP1, read-out: HAP1 MTAP deleted viability) [nM]
CCc1cc(NC(=O)C(=O)N2C[C@@H](C)CC[C@@H]2c2ccc3sc(-c4ccncc4)nc3c2)cnc1N [Compound 1194, N-(6-amino-5-ethylpyridin-3-yl)-2-((2R,5S)-5-methyl-2-(2-(pyridin-4-yl)benzo[d]thiazol-5-yl)piperidin-1-yl)-2-oxoacetamide] | 50 to 500 | < 50 | < 50 | 100 to 1000 | < 100 | A (an IC50 ratio greater than or equal to 10 fold) | < 1000 |  |  | 
CCc1cc(NC(=O)C(=O)N2C[C@@H](C)CC[C@@H]2c2ccc3sc(CCN(C)C4COC4)nc3c2)cnc1N [Compound 1195, N-(6-amino-5-ethylpyridin-3-yl)-2-((2R,5S)-5-methyl-2-(2-(2-(methyl(oxetan-3-yl)amino)ethyl)benzo[d]thiazol-5-yl)piperidin-1-yl)-2-oxoacetamide] | 50 to 500 | < 50 | < 50 | < 100 | < 100 | A (an IC50 ratio greater than or equal to 10 fold) | < 1000 |  |  | 
CCc1cc(NC(=O)C(=O)N2C[C@@H](C)CC[C@@H]2c2ccc3sc(C[C@@H](C)N(C)C)nc3c2)cnc1N [Compound 1198, N-(6-amino-5-ethylpyridin-3-yl)-2-((2R,5S)-2-(2-((R)-2-(dimethylamino)propyl)benzo[d]thiazol-5-yl)-5-methylpiperidin-1-yl)-2-oxoacetamide] | 50 to 500 | < 50 | < 50 | < 100 | < 100 | A (an IC50 ratio greater than or equal to 10 fold) | < 1000 |  |  | 
CCc1cc(NC(=O)C(=O)N2C[C@@H](C)CC[C@@H]2c2ccc3cn(C)nc3c2)cnc1N [Compound 1199, N-(6-amino-5-ethyl-3-pyridyl)-2-[(5S)-5-methyl-2-(2-methylindazol-6-yl)-1-piperidyl]-2-oxo-acetamide] | 50 to 500 | < 50 | < 50 | 100 to 1000 | < 100 | A (an IC50 ratio greater than or equal to 10 fold) | < 1000 |  |  | 
CCc1cc(NC(=O)C(=O)N2C[C@@H](C)CC[C@@H]2c2ccc3sc(-c4cccnc4)nc3c2)cnc1N [Compound 1200, N-(6-amino-5-ethylpyridin-3-yl)-2-((2R,5S)-5-methyl-2-(2-(pyridin-3-yl)benzo[d]thiazol-5-yl)piperidin-1-yl)-2-oxoacetamide] | 50 to 500 | < 50 | < 50 | 100 to 1000 | < 100 | A (an IC50 ratio greater than or equal to 10 fold) | < 1000 |  |  | 
CCc1cc(NC(=O)C(=O)N2C[C@@H](C)CC[C@@H]2c2ccc3sc([C@H]4CN(C)CCO4)nc3c2)cnc1N [Compound 1202, N-(6-amino-5-ethyl-3-pyridyl)-2-oxo-2-[(2R,5S)-5-methyl-2-[2-[(2R)-4-methylmorpholin-2-yl]-1,3-benzothiazol-5-yl]-1-piperidyl]acetamide] | 50 to 500 | < 50 | < 50 | < 100 | < 100 | A (an IC50 ratio greater than or equal to 10 fold) | < 1000 |  |  | 
COc1cc(NC(=O)C(=O)N2C[C@@H](C)CC[C@@H]2c2ccc3sc(C4CCN(C)CC4)nc3c2)cnc1N [Compound 1203, N-(6-amino-5-methoxypyridin-3-yl)-2-((2R,5)-5-methyl-2-(2-(1-methylpiperidin-4-yl)benzo[d]thiazol-5-yl)piperidin-1-yl)-2-oxoacetamide] | < 50 | < 50 | < 50 | < 100 | < 100 | A (an IC50 ratio greater than or equal to 10 fold) | < 1000 |  |  | 
CCc1cc(NC(=O)C(=O)N2C[C@@H](C)CC[C@@H]2c2ccc(OCC3CCN(C)CC3)cc2)cnc1N [Compound 1206] | 50 to 500 | < 50 | < 50 | 100 to 1000 | < 100 | A (an IC50 ratio greater than or equal to 10 fold) | < 1000 |  |  | 
CCc1cc(NC(=O)C(=O)N2C[C@@H](C)CC[C@@H]2c2ccc3sc(C45CC(CN(C)C4)C5)nc3c2)cnc1N [Compound 1212, N-(6-amino-5-ethylpyridin-3-yl)-2-((2R,5S)-5-methyl-2-(2-(3-methyl-3-azabicyclo[3.1.1]heptan-1-yl)benzo[d]thiazol-5-yl)piperidin-1-yl)-2-oxoacetamide] | < 50 | < 50 | < 50 | < 100 | < 100 | B (an IC50 ratio greater than or equal to 3 fold but lower than 10 fold) | < 1000 |  |  | 
Cc1cc(NC(=O)C(=O)N2C[C@@H](C)CC[C@@H]2c2ccc3sc(-c4cn(C)cn4)nc3c2)cnc1N [Compound 1214, N-(6-amino-5-methylpyridin-3-yl)-2-((2R,5S)-5-methyl-2-(2-(1-methyl-1H-imidazol-4-yl)benzo[d]thiazol-5-yl)piperidin-1-yl)-2-oxoacetamide] | 50 to 500 | < 50 | < 50 | 100 to 1000 | < 100 | A (an IC50 ratio greater than or equal to 10 fold) | < 1000 |  |  | 
Cc1cc(NC(=O)C(=O)N2C[C@@H](C)CC[C@@H]2c2ccc3sc([C@@H]4CCN(C)C(C)(C)C4)nc3c2)cnc1C [Compound 1215, N-(5,6-dimethyl-3-pyridyl)-2-oxo-2-[(2R,5S)-5-methyl-2-[2-[(4R)-1,2,2-trimethyl-4-piperidyl]-1,3-benzothiazol-5-yl]-1-piperidyl]acetamide] | < 50 | < 50 | < 50 | 100 to 1000 | < 100 | A (an IC50 ratio greater than or equal to 10 fold) | < 1000 |  |  | 
CCc1cc(NC(=O)C(=O)N2C[C@@H](C)CC[C@@H]2c2ccc3sc(C45CCC(CC4)N(C)C5)nc3c2)cnc1N [Compound 1217] | < 50 | < 50 | < 50 | < 100 | < 100 | B (an IC50 ratio greater than or equal to 3 fold but lower than 10 fold) | < 1000 |  |  | 
COc1ncc(NC(=O)C(=O)N2C[C@@H](C)CC[C@@H]2c2ccc3sc(C4CCN(C5CC5)CC4)nc3c2)cc1C(N)=O [Compound 1219, 5-(2-((2R,5S)-2-(2-(1-cyclopropylpiperidin-4-yl)benzo[d]thiazol-5-yl)-5-methylpiperidin-1-yl)-2-oxoacetamido)-2-methoxynicotinamide] | 50 to 500 | < 50 | < 50 | < 100 | < 100 | A (an IC50 ratio greater than or equal to 10 fold) | < 1000 |  |  | 
Cc1cc(NC(=O)C(=O)N2C[C@@H](C)CC[C@@H]2c2ccc3sc(C4CCN(C)CC4)cc3c2)cnc1N [Compound 1220, N-(6-amino-5-methyl-3-pyridyl)-2-[(2R,5S)-5-methyl-2-[2-(1-methyl-4-piperidyl)benzothiophen-5-yl]-1-piperidyl]-2-oxo-acetamide] | < 50 | < 50 | < 50 | < 100 | < 100 | B (an IC50 ratio greater than or equal to 3 fold but lower than 10 fold) | < 1000 |  |  | 
CCc1cc(NC(=O)C(=O)N2C[C@@H](C)CC[C@@H]2c2ccc3sc(C4CCN(C5COC5)CC4)nc3c2)cnc1N [Compound 1224, N-(6-amino-5-ethylpyridin-3-yl)-2-((2R,53)-5-methyl-2-(2-(1-(oxetan-3-yl)piperidin-4-yl)benzo[d]thiazol-5-yl)piperidin-1-yl)-2-oxoacetamide] | 50 to 500 | < 50 | < 50 | < 100 | < 100 | A (an IC50 ratio greater than or equal to 10 fold) | < 1000 |  |  | 
Cc1cc(NC(=O)C(=O)N2C[C@@H](C)CC[C@@H]2c2ccc(N(C)C3CCN(C)CC3)nc2)cnc1N [Compound 1225, N-(6-Amino-5-methyl-3-pyridyl)-2-[(2R,5S)-5-methyl-2-[6-[methyl-(1-methyl-4-piperidyl)amino]-3-pyridyl]-1-piperidyl]-2-oxo-acetamide] | < 50 | < 50 | < 50 |  |  | A (an IC50 ratio greater than or equal to 10 fold) |  | 100 to 1000 | < 100 | < 1000
